# Assay results taken from a melting point compilation (Tetko et al.; mined from patent text by program, amines drawn as free bases though some values may be those of a salt).
row,SMILES,melting point
1,Fc1cccc(F)c1-c1nc2ccccc2n1Cc1ccccc1,124 °C
2,Fc1ccc(-c2n[nH]cc2-c2ccnc(NC3CC3)n2)cc1,203 to 204 °C
3,O=C(c1cccc(-c2cc3ccccc3[nH]2)c1)c1cc2ccccc2[nH]1,206 to 207 °C
4,O=C1c2ccccc2OCN1CCCl,45 °C
5,CCCCc1nc2cccnc2n1Cc1ccc2c(Cl)c(C(=O)OC)sc2c1,127 to 129 °C
6,CN(C)C=CC(=O)c1ccccc1,88 to 91 °C
7,Cc1cn(C(C)C(=O)Nc2ccccc2)nc1-c1ccccc1 (stereo not drawn),79 to 82 °C
8,Nc1ncccc1-c1nc2ccc(-c3cccnc3)nc2n1-c1ccc(CNC(=O)c2ccccc2)cc1,253 to 256 °C
9,CCc1nc2c(cnn2CC)c(NC2CCOCC2)c1CNC(=O)c1cc(C)cc(C(=O)NCc2cccc(-c3cccc(C=O)c3)c2)c1,109 to 112 °C
10,Cc1cccc2c1N(CC(=O)N1CC3CCC(CC3)C1)CC(NC(=O)Nc1cccc(Br)c1)N=C2c1ccccc1F (stereo not drawn),> 250 °C
11,O=[N+]([O-])c1ccc(Sc2ncc(Cl)cn2)s1,141 to 143 °C
12,Fc1ccc(-c2nc3ccccn3c2Br)c(F)c1,144 °C
13,CC(=Cc1cc(Cl)ccc1O)[N+](=O)[O-],104 to 106 °C
14,COP(=O)(Cc1cc(C(C)(C)C)c(O)c(C(C)(C)C)c1)c1ccccc1 (stereo not drawn),112 to 114 °C
15,COC(=O)C(C)(C)n1nnc2ccc(Oc3cc(F)c(C(F)(F)F)c(Cl)c3)cc21,76.8 to 80 °C
16,C=CCOc1cc2c(cc1CC=C)N(CC=C(C)C)C(=O)CC2,86 to 88 °C
17,COc1cc(COc2nn(-c3ccccc3)cc2/C=C/c2nnco2)ccc1OCc1nc(-c2ccco2)oc1C,162 to 163 °C
18,Cc1ccc(-c2c(CNC(=O)OC(C)(C)C)n(CC(C)C)c(=O)c3ccc(C(=O)O)cc23)cc1,230 to 231 °C
19,CCCCOc1ccc([N+](=O)[O-])c(C(=O)O)c1,82 to 84 °C
20,CN1C(=O)C(C#N)(c2ccc(OCC(O)CNC(C)(C)C)cc2)Sc2ccccc21 (stereo not drawn),160 °C
21,CC(=O)SCCC(=O)N1CCC[C@H]1C(=O)O,89 to 90 °C
22,CC(C)=CCN1Cc2cc(Cl)cc3[nH]c(=S)n(c23)C[C@@H]1C,186 °C

row,SMILES,melting point
1,O=C1c2ccccc2C(=O)N1Cc1noc(-c2ncn3c2[C@@H]2CCN2C(=O)c2ccccc2-3)n1,290 to 292 °C
2,CCOc1nc2cc(Cl)c(Cl)cc2nc1N,191 to 193 °C
3,CCOC(=O)c1cnn(-c2ccc(OC(F)(F)F)cc2)c1N,102 to 103 °C
4,COc1ccc(CC(=O)O)c(C(=O)O)c1,175 to 177 °C
5,CC1(C)CCC(C)(C)c2cc(C(=O)Nc3ccc(F)cc3)ccc21,163 to 165 °C
6,Cc1[nH]cnc1Cc1cn(C)c2ccccc2c1=O,110 to 113 °C
7,CN1C(=O)CN=C(c2ccccc2F)c2cc(NC(=O)NCCOC(C)(C)C)ccc21,177 °C
8,O=C(NC(=S)Nc1ccc(F)cc1)c1ccccc1,82 °C
9,O=C(O)c1cc(-c2ccncc2)n[nH]c1=O,> 310 °C
10,CCCCCCCC/C=C\CCCCCCCC(=O)OCC1(CO)CCC(=O)O1 (stereo not drawn),38.5 to 39.5 °C
11,CC1(C)OCCC2C(C3(O)CCSCC3)C(=O)N21 (stereo not drawn),133 to 134 °C
12,C#CCOCCn1c(CN2CCCN(C)CC2)nc2ccccc21,133 to 136 °C
13,O=C1NC(=O)N2C(c3ccccc3)SC[C@@H]12 (stereo partly drawn),177 to 179 °C
14,Cn1nc2c(-c3ccc(Cl)cc3Cl)cccc2c1-c1nnco1,199 to 201 °C
15,N#CCS(=O)(=O)CC(=O)O,104 to 105 °C
16,CCCCc1nc(C(C)(O)CC)c(C#N)[nH]1 (stereo not drawn),139 to 142 °C
17,Cc1cc(CCCCCS(=O)c2ccc(C3=NCCO3)cc2)on1 (stereo not drawn),110 to 111 °C
18,CSc1ccc(-c2nn(Cc3cccnc3)c(=S)cc2-c2ccc(Cl)cc2)cc1,130 to 131 °C
19,CC(=O)Oc1ccc2c(c1)C1C(OC(=O)C(C)(C)C)CC3(C)C(OC(=O)C(C)(C)C)CCC3C1CC2 (stereo not drawn),143 to 146 °C
20,COC(=O)C(=CNc1sccc1C(=O)O)SC,192 to 194 °C
21,Oc1ccc(O)c2cc3ccccc3cc12,167 to 169 °C
22,CSc1noc(-c2ccc(OCCCCOc3ccccc3)cc2)c1C#N,113 to 114 °C

row,SMILES,melting point
1,CCOc1ccccc1-c1nc2cc3nc[nH]c3cc2c(=O)[nH]1,194 to 196 °C
2,CN1C(=O)C(C)(C)c2ccc(C(=O)O)cc21,253 to 255 °C
3,CN(CC(O)C(O)C(O)C(O)CO)C(=O)c1c(I)c(N)c(I)c(N)c1I (stereo not drawn),110 °C
4,O=C(NNS(=O)(=O)c1cccc(F)c1)c1ccc2oc3ccccc3c2c1,223 °C
5,Cc1nnc(C(O)CCCCCCOc2ccccc2)o1 (stereo not drawn),50 to 52 °C
6,CC(NC(=O)Cc1cc(F)cc(F)c1)C(=O)C1(N)N=C(c2ccccc2)c2cc(Cl)ccc2N(C)C1=O (stereo not drawn),126 to 130 °C
7,CCOC(=O)C(=C(NC)NCc1ccc(Cl)nc1)[N+](=O)[O-],231 to 233 °C
8,CCCCCCC(C(=O)O)n1c(C(F)(F)F)nc2cc(-c3ccccc3-c3nn[nH]n3)ccc21 (stereo not drawn),128 to 130 °C
9,CCOC(=O)CCN(C)Cc1ccc(NC(=O)C2=Cc3cc(-c4ccc(N5CCOCC5)cc4)ccc3S(=O)(=O)CC2)cc1,209 to 211 °C
10,O=C1c2ccccc2S(=O)(=O)N1CCCCOc1ccc(OCc2ccccc2)cc1,82 to 84 °C
11,CCCN(CCC)[C@H]1COc2c(F)ccc(C(=O)NC)c2C1,72 to 73 °C
12,"COc1ccc(C(=O)CC(Cc2ccccc2)C(=O)O)cc1 (single isomer, unassigned; (+))",93 °C
13,COc1cc(C(=O)Nc2cc(F)ccc2C(=O)O)cc(OC)c1OC,232 to 233 °C
14,CC1CC=CCN1Cc1ccc(O)cc1 (stereo not drawn),109 to 112 °C
15,COc1ccc(C(=CC#N)c2cc(OC)c(OC)c(OC)c2)cc1N,97 to 99 °C
16,COCc1c(C)ccc(C(O)=S)c1C,192 to 194 °C
17,NCCCCOc1ccc2c(c1)NC(=O)C(CC(=O)O)C2 (stereo not drawn),229 to 230 °C
18,COc1ccc(C(=O)Nc2ccc(C(C)(C)C#N)cc2)cc1,169 to 171 °C
19,COc1ccc(-c2cc(O)ccc2-c2ncnc(-c3ccccc3)n2)cc1,177 to 178 °C
20,N#Cc1c(C#N)c(Oc2ccc3ccccc3c2)c(Oc2ccc3ccccc3c2)c(Oc2ccc3ccccc3c2)c1Oc1ccc2ccccc2c1,188 to 190 °C

# Results, then the molecule that gave them:
row,melting point,SMILES
1,110 to 112 °C,COCC1CN(c2ccc3cc(OC(C)=O)ccc3c2)C(=O)O1 (stereo not drawn)
2,182 to 183 °C,O=C(O)CCc1cc(OCCCc2cn(-c3ccc(C(F)(F)F)cn3)nc2C2CCCCC2)nn1-c1ccccc1
3,116 to 117 °C,COC(=O)c1c(NC(C)=O)sc2c1CCC(c1ccccc1)C2 (stereo not drawn)
4,224 °C,O=C(NOC1CCCCO1)c1ccc(C(=O)Nc2cccc(Nc3nc(-c4cccnc4)cs3)c2)cc1 (stereo not drawn)
5,171 °C,COc1ccc2c(c1OC)C1=NCCN1C1C(c3ccccc3)CCN21 (stereo not drawn)
6,183 °C,CCCC(=O)N[C@H]1CC[C@H](CCN2CCN(c3nccc4c3OCC4)CC2)CC1
7,228 to 230 °C,Nc1c(Cl)cc(Nc2ncnc3cnc(N[C@H]4CC[C@H](C(=O)N5CCCC5)CC4)nc23)cc1Cl
8,225 to 226 °C,NS(=O)(=O)c1ccc(-c2cc(-c3c[nH]nc3-c3cccc(C4CC4)n3)ccc2F)cc1
9,92 to 93 °C,CCOC(=O)/C=C/c1ccc(OC(C)C)nc1Oc1ccc(Cl)cc1Cl
10,138 to 139 °C,CCCCc1nc(Cl)c(CC(Cc2ccccc2)C(=O)O)n1Cc1ccccc1Cl (stereo not drawn)
11,152 to 153 °C,CC1CCN2C(=N1)C(=O)c1cc(S(=O)(=O)N3CCCC3)ccc12 (stereo not drawn)
12,103 to 104 °C,CC(=O)N[C@@H](C)c1ccc(CO)cc1
13,159 °C,Cc1nc(-c2ccc(F)cc2)sc1C(=O)NCc1ccc(OC(C)(C)C(=O)O)cc1
14,289 to 292 °C,CC(=O)N(c1ccc(N2CCN(C)CC2)cc1)c1ncc2c(n1)S/C(=C/c1cn(C(C)=O)c3ccccc13)C(=O)N2
15,150 °C,CC(=O)O[C@@H]1CN2C(=O)N(c3cc(Cl)cc(Cl)c3)C(=O)[C@]2(Cc2ccc(Br)cc2)C1
16,100 to 103 °C,CCN1CCCC(NC(=O)N2CCN(c3ccccc3)CC2)C1 (stereo not drawn)
17,238 to 241 °C,Cc1cc(Nc2ccc(C(=O)O)cc2)c2[nH]ncc2n1

row,melting point,SMILES
1,235 to 237 °C,Cn1cc(S(N)(=O)=O)c(=O)c2ccc(Cl)cc21
2,147 to 148 °C,O=Cc1c[nH]cc1-c1ccccc1Cl
3,157 to 160 °C,CC1(C)Cc2cc(S(N)(=O)=O)ccc2O1
4,81.7 to 84 °C,O=c1oc2c(c(O)c1C(c1ccccc1)C1CC1)CCCCCCC2 (stereo not drawn)
5,211 to 213 °C,COc1ccc(-c2cnc3[nH]cc(C(=O)C(C)(C)C)c3n2)cc1N1CCCC1
6,138 to 139 °C,CC(F)c1nc2ncnn2c(NC2CCC(C(C)(C)C)CC2)c1Cl (stereo not drawn)
7,259 to 262 °C,CC(c1oc2ccccc2c(=O)c1-c1cccc(F)c1)n1nc(-c2ccc(S(C)(=O)=O)cc2)c2c(N)ncnc21 (stereo not drawn)
8,95 to 97 °C,CS(=O)(=O)c1ccc(C(CC2CCCC2)c2nc(Cl)c(C(=O)C3CC3)[nH]2)cc1 (stereo not drawn)
9,107 to 108 °C,CCOc1ccc(S(=O)(=O)N2CCN(C)CC2)cc1C=O
10,141 to 142 °C,Cc1c(C)c2c(c(C)c1OC(=O)CCC(=O)O)C(c1ccc(C(C)C)cc1)C(C)(C)O2 (stereo not drawn)
11,80 to 82 °C,COC1=C(OC)C(=O)C2=C(CCC(CCOc3cccnc3)CC2)C1=O
12,201 to 202 °C,Cc1noc(NC(=O)N2CCN(c3nc(-c4cccc(Cl)c4)cs3)CC2)c1C
13,164 to 166 °C,Cc1cc(NS(=O)(=O)c2ccc(Br)cc2)cc(C)c1S(=O)(=O)C[N+](=O)[O-]
14,221 to 225 °C,O=C(NS(=O)(=O)c1ccccc1)c1ccc2nc(C3CC3)n(Cc3ccc(-c4ccccc4)cc3)c2c1
15,130 °C,COc1ccc2nc(CN3CCN(c4ccc(Cl)cc4Cl)CC3)cn2c1
16,241 °C,CC(=O)c1ccc2[nH]c3ccc(C(C)=O)cc3c2c1
17,186 to 187 °C,CCOCC1(C)CCCSc2cc(/C=C/c3ccc(C(=O)O)cc3)ccc21 (stereo not drawn)
